# Reference: patent US20040198605A1, “Growth promoter for gramineous plants” (priority 2001, published 2004)
# Several values for one entry are separate records, joined by “and”; a condition that tells them apart may be missing. Identical values can stand only once.
# What was measured:
# [1] = system: Seedlings of lawns (western lawns; Evergreen Lawn Grass); experiment: Hydroponics (water culture) of lawns, serine sprinkled over the surfaces of leaves; format: in vivo; settings: 26th day
# Protocol: Seedlings of lawns (western lawns; Evergreen Lawn Grass) were raised and were divided into two groups, A and B, each consisting of 60 seedlings so as to carry out water culture. A given amount of a liquid fertilizer was added to a water culture solution, to which inosine was then added to a concentration of 0.2 ppm. The testing period started on Oct. 6, 1999 and ended on Nov. 1, 1999 (26 days). Group A was set as a control area. As for Group B, 5 ml of a solution so prepared as to have a serine concentration of 20 ppm was sprinkled over the surfaces of leaves every day over a period of 15 days. On the 26th day, the weight of 5 average grown seedlings selected from each group was measured.
# [2] = system: Lawn sods (bent grass; breed name: BENCROSS); experiment: Soil culture of lawns, leaf surface sprinkling test; format: in vivo; settings: for Weight of Cut Stem/Leaf after Dried (mean of three pots) / Weight of Cut Stem/Leaf after Dried (individual pots): cut on 77th day; for Weight of Cut Stem/Leaf after Dried (individual pots): three pots
# Protocol: Lawn sods having a diameter of 4 cm and a thickness of 3 cm (bent grass; breed name: BENCROSS) were each planted in 1/50 m^2 Wagner pots, and a leaf surface sprinkling test was carried out on a group of three pots. To the soil of each pot, a chemical fertilizer (12-8-10) was add-mixed as the initial fertilizer in an amount of 1 g/pot. Serine was diluted with water to the concentrations shown in the following Table 1 and sprinkled by means of a sprinkler on the 10th day and 24th day after planting. On the 77th day after planting, the plant parts exposed on the ground were cut, and the weight thereof after dried was measured.
# [3] = 5 ml of serine 20 ppm sprinkled on leaves daily for 15 days, inosine 0.2 ppm in water culture solution, 5 average seedlings
compound,measurement,setting,value
"N[C@@H](CO)C(=O)O [Serine, serine]",Average Leaf Length,[1]; [3],22 cm
same,Root Length,[1]; [3],4.1 cm
same,"Root length, leaf length and total weight in the raw state (in words)",[1]; serine-treated area,good
same,Total Weight in Raw State,"[1]; total of above-ground portions and roots of 5 undried lawn plants, serine 20 ppm on leaves daily for 15 days, inosine 0.2 ppm in water culture",0.35 g
same,Weight of Cut Stem/Leaf after Dried (mean of three pots),[2]; serine 18.3 ppm sprinkled on 10th and 24th day,2.27 ± 0.12 g/pot
same,Weight of Cut Stem/Leaf after Dried (individual pots),[2]; serine 18.3 ppm sprinkled on leaf surfaces on 10th and 24th day after planting,2.17 g/pot and 2.43 g/pot and 2.20 g/pot
same,"Percentage (dried weight, Control = 100)","[2]; serine 18.3 ppm, 77th day, * statistically significant difference",185*
same,Weight of Cut Stem/Leaf after Dried (mean of three pots),[2]; serine 183 ppm sprinkled on 10th and 24th day,1.27 ± 0.16 g/pot
same,Weight of Cut Stem/Leaf after Dried (individual pots),[2]; serine 183 ppm sprinkled on leaf surfaces on 10th and 24th day after planting,1.26 g/pot and 1.47 g/pot and 1.08 g/pot
same,"Percentage (dried weight, Control = 100)","[2]; serine 183 ppm, 77th day",104
same,Growth (in words),"[2]; serine-treated areas, particularly 18.3 ppm-treated areas, 77th day",good growth was observed
